Data as given in patent US20160113931A1, “Method of treating and/or preventing neurodegenerative diseases” (University of Macau, priority 2014, published 2016).
“Also recorded” adds a separate entry of the source.

System: PKA/CREB/Bcl2 signaling pathway
Experiment: Western blotting of phosphorylated PKA, phosphorylated CREB and Bcl2 in SH-SY5Y cells
Type: cell-based, human
Method: Cells were pre-treated with 30 μM BHDPC for 2 h.
Cells were pre-treated with BHDPC (3, 10 and 30 μM) for 2 h and then were collected at 120 min. […] The expression ratios of phosphorylated PKA, phosphorylated CREB and Bcl2 proteins as detected by Western blotting with specific antibodies were shown in FIGS. 8B, 8C and 8D respectively.
After treatment, SH-SY5Y cells were collected and washed three times with ice-cold PBS. Then the harvested cells were lysed on ice for 30 min in RIPA lysis buffer containing 1% PMSF and 1% Protease Inhibitor Cocktail and centrifuged at 12,500×g for 20 min at 4° C. The supernatant was collected and protein concentrations were determined using the BCA protein assay kit (Thermo Scientific Pierce). Aliquots of protein samples (30 μg) were boiled for 5 min at 95° C. and electrophoresed on SDS-PAGE (10% (w/v) polyacrylamide gel) and then transferred to a polyvinylidene difluoride (PVDF) membrane (Bio-Rad, Hercules, Calif.). Subsequently, the membrane was blocked with 5% (w/v) non-fat milk in PBST (PBS containing 0.1% Tween-20) for 2 h at room temperature. The blots were incubated overnight at 4° C. with primary antibodies. After washed with PBST for 20 min at room temperature, the membranes were further incubated with horseradish peroxidase-conjugated secondary antibodies for 2 h at room temperature. Finally, protein bands were visualized using an ECL plus Western blotting detection reagents (GE Healthcare, Piscataway, N.J., USA). The membranes were then scanned on a Bio-Rad ChemiDoc XRS Imaging System and the intensity of the protein bands were analyzed using the Bio-Rad Quantity One Software (4.5.2).
To determine which survival signaling pathway is regulated by BHDPC, SH-SY5Y cells were pre-treated with 30 μM BHDPC for 2 h, and then the phosphorylation of PKA at […] were examined by Western blot analysis. […] The inventors also determined whether BHDPC affected the phosphorylation of CREB. […] Bcl2 is a well-known anti-apoptotic protein. The inventors determined whether BHDPC affected the expression of Bcl2.

In the case of `COc1cc(C2C(C(=O)OCc3ccccc3)=C(C)Nc3nnnn32)ccc1O` (stereo not shown) [BHDPC, benzyl 7-(4-hydroxy-3-methoxyphenyl)-5-methyl-4,7-dihydrotetrazolo[1,5-a]pyrimidine-6-carboxylate], the “phosphorylation intensity of PKA, time course” value (30 μM, 0 to 120 min, particularly at 90 and 120 min) is reported as “gradually increased; also recorded: activated PKA signaling pathway”, the “expression of Bcl2, dose-dependent” value (3, 10 and 30 μM, 2 h) is reported as “up-regulated” and the “phosphorylation intensity of CREB, dose-dependent” value (3, 10 and 30 μM, 2 h) is reported as “increased”. The “phosphorylation intensity of PKA, dose-dependent” value (3, 10 and 30 μM, 2 h) was “increased”.
